Patent publication US9688624B2, “DP2 antagonist and uses thereof” (Brickell Biotech, Inc., priority 2010, dated 2017)
Structures can show the parent of a compound that is named as a salt. Where two headings read alike, the source gives them in different places.

Key:
[1] = target: recombinant human CRTH2 receptor (Homo sapiens (Human), UniProt Q9Y5Y4); assay: In vitro membrane GTPγS binding assay; assay type: biochemical; details: average; 80 nM PGD2, 0.2% human serum albumin
Protocol: Example 16: In Vitro GTPγS Binding Assay
The ability of Compound 1 to inhibit binding of GTP to DP2 is assessed via a membrane GTPγS assay. CHO cells stably expressing the recombinant human CRTH2 receptor are resuspended in 10 mM Hepes, 7.4 containing 1 mM DTT, lysed and centrifuged at 75,000×g to pellet the membranes. The membranes are resuspended in 10 mM Hepes, 7.4 containing 1 mM DTT and 10% glycerol. Membranes (˜12.5 μg per well) are incubated in 96-well plates with 0.05 nM [^35S]-GTPγS, 80 nM PGD2, 5 μM GDP, and Compound 1 in Assay Buffer (50 mM Hepes, pH 7.4, 100 mM NaCl, 5 mM MgCl2 and 0.2% human serum albumin) for 60 minutes at 30° C. The reactions are terminated by rapid filtration through Whatman GF/B glass fibre filter plates. The filter plates are washed 3 times with 1 ml cold Assay Buffer and dried. Scintillant is then added to the plates and the radioactivity retained on the filters is determined on a Packard TopCount (Perkin Elmer). Specific binding is determined as total radioactive binding minus non-specific binding in the […] of the ligand (80 nM PGD2). IC50s were determined using Graphpad prism analysis of drug titration curves.

DP2 receptor = DP2 receptor (Homo sapiens (Human), UniProt Q9Y5Y4); assay: In vitro whole blood eosinophil shape change (ESC) assay, PGD2-induced; assay type: cell-based
DP2 receptor, sequence (Q9Y5Y4 whole entry): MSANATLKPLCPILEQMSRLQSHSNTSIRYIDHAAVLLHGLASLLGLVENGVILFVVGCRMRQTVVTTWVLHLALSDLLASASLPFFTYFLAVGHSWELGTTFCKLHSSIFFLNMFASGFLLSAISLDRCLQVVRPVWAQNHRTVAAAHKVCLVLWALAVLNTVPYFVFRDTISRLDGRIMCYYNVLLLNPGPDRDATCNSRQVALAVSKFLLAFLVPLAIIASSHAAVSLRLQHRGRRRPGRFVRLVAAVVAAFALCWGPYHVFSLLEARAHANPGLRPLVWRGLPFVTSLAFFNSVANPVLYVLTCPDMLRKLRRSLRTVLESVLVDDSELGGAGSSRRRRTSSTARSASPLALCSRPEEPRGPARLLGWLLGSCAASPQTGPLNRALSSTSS
Protocol: Example 17: In Vitro Whole Blood Esoinophil Shape Change Assay
Compound 1 was evaluated in a whole blood assay of eosinophil shape change (ESC) to determine the ability of Compound 1 to antagonize a PGD2-stimulated functional response in the context of whole blood.
Blood is drawn from consenting human volunteers in EDTA vacutainer tubes and used within 1 hr of draw. A 98 μl aliquot of blood is mixed with 2 μl of Compound 1 (in 50% DMSO) in 1.2 ml polypropylene tubes. The blood is vortexed and incubated at 37° C. for 5 minutes. 5 μl of 1 μM PGD2 in PBS is added for a final concentration of 50 nM and the tubes briefly vortexed. The reactions are incubated for exactly 5 minutes at 37° C. and then terminated by placing the tubes on ice and immediately adding 250 μl of ice-cold 1:4 diluted Cytofix (BD Biosciences). The reactions are transferred to […] polystyrene round bottom tubes and the red blood cells lysed by the addition of 3 ml ammonium chloride lysing solution (150 mM NH4C1, 10 mM KHCO3, 0.1 mM EDTA disodium salt) and incubation at room temperature for 15 minutes. The cells are pelleted by spinning at 1300 rpm for 5 minutes at 4° C. and washed once with 3 ml ice-cold PBS. The cells are resuspended in 0.2 ml of ice-cold 1:4 diluted Cytofix (BD Biosciences) and analyzed on a FACSCalibur (BD Biosciences) within 2 hours. Eosinophils were gated on the basis of autofluorescence in the FL2 channel and shape change on 500 eosinophils was assayed by forward scatter and side scatter analysis. The specific change in shape induced by PGD2 was calculated as the difference between the percentage of high forward scatter eosinophils in the presence and absence of PGD2. IC50s were determined using Graphpad Prism® analysis of drug titration curves.

[2] = Plasma concentrations in guinea pig allergic asthma model; assay type: in vivo; details: for concentration at 3 h: oral, 3 hours post dose, read-out: mean plasma Compound 1 concentration
Protocol: Plasma Compound 1 concentrations were determined 3 hours and 24 hours post dose. […] At 60 mg/kg, a mean plasma concentration of 371.7±303.8 was observed 3 hours post dose. At 100 mg/kg, a mean plasma concentration of 360.8±131.3 was observed 3 hours post dose.

CYP2D6 = CYP2D6 (Homo sapiens (Human), UniProt P10635); assay: Extracellular cytochrome P450 inhibition (microsomes); assay type: in vitro ADME; details: 2D6, dextromethorphan O-demethylation
CYP2D6, sequence (P10635 whole entry): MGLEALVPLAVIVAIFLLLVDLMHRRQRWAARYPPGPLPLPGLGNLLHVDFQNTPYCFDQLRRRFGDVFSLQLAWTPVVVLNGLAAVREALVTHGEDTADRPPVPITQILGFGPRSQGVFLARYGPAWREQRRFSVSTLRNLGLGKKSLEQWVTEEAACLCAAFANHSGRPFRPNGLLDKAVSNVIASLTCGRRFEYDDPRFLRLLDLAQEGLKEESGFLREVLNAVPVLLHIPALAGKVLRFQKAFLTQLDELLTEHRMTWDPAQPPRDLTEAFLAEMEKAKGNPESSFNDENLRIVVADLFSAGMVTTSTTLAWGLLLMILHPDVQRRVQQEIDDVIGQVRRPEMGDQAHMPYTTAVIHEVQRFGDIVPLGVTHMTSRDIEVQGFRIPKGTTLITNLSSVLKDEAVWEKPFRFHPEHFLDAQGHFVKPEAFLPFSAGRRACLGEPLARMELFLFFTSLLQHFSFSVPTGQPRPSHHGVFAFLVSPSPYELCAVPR

[3] = Capsule formulation pharmacokinetics in male Beagle dogs; assay type: in vivo; details: dog, fasted; for half-life: read-out: t1/2 24 hr (converted)
Protocol: In a separate study, male Beagle dogs were dosed with the capsule formulations as described herein.

[4] = tested on: allergen-induced asthma (OVA challenge); assay: Guinea pig allergic asthma (OVA) model; assay type: in vivo
Protocol: Example 20: Guinea Pig Allergic Asthma Model
Compound 2 was evaluated in a guinea pig OVA model in order to determine efficacy in a setting of allergen-induced asthma. As an early indication of a pharmacodynamic response animals were challenged with DK-PGD2 2 hours post OVA challenge (2.5 hours post Compound 2 administration) and blood was collected 30 minutes later to assess leukocytes counts. […] OVA challenge caused a significant influx of cells in bronchoalveolar lavage fluid at 23.5 hr post-dose; there was no difference between animals that received OVA only versus those that received OVA plus DK-PGD2. The majority of cells were eosinophils and macrophages with a small, but significant proportion of neutrophils.

CYP1A2 = CYP1A2 (Homo sapiens (Human), UniProt P05177); details: microsomes, pH 7.4
CYP1A2, sequence (P05177 whole entry): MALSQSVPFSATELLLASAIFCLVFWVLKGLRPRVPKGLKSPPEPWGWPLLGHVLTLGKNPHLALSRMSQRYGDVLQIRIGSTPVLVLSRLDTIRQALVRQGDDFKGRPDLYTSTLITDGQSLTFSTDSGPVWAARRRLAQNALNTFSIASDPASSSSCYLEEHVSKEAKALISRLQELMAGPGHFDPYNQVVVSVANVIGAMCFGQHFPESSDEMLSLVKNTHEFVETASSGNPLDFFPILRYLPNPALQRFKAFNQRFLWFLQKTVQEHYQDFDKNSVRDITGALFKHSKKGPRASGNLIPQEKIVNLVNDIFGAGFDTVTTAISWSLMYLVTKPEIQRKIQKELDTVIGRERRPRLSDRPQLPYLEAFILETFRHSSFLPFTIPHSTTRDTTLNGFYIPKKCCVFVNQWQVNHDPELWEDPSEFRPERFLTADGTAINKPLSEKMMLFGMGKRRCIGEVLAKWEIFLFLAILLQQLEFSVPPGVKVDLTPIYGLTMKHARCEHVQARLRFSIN

CYP2C19 = CYP2C19 (Homo sapiens (Human), UniProt P33261); assay: Extracellular cytochrome P450 inhibition (microsomes); details: IC50 (μM), 2C19, mephenytoin 4′-hydroxylation
CYP2C19, sequence (P33261 whole entry): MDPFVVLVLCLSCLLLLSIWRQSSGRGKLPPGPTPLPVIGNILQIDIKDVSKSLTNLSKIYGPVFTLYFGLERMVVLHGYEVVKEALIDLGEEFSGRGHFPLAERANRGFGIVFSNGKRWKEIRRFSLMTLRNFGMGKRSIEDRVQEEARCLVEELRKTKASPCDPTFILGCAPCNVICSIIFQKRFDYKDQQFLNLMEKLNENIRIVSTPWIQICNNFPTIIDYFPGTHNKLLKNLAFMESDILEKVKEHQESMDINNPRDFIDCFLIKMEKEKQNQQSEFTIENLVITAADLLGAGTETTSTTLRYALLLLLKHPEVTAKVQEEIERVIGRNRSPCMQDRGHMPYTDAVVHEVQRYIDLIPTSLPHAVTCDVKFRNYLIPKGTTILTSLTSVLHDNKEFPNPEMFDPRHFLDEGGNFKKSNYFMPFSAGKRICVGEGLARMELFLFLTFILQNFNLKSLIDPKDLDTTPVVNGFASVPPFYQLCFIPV

[5] = male, Beagle, in vivo, po, Capsule, 5.6 mg/kg
[6] = male, Beagle, in vivo, po, EC-Capsule (L100-55), 5 mg/kg
[7] = male, Beagle, in vivo, IV saline, 2 mg/kg

recombinant human CRTH2 receptor, sequence (Q9Y5Y4 whole entry): as the sequence (Q9Y5Y4 whole entry) above

COc1ccc(CC(=O)O)cc1Oc1ccc(NC(=O)C(C)(C)C)cc1CSC(C)(C)C [Compound 1, 2-(3-(2-((tert-butylthio)methyl)-4-(2,2-dimethyl-propionylamino)phenoxy)-4-methoxyphenyl)acetic acid]
IC50 [1]: 2.8 nM | IC90 (DP2 receptor): 5.5 nM | IC50 (DP2 receptor; average, 50 nM PGD2, read-out: IC50, PGD2-induced eosinophil shape change in human whole blood): 1.5 nM | IC90 (DP2 receptor; same value expressed in ng/mL): 2.6 ng/mL | IC50 (DP2 receptor; same value expressed in ng/mL, read-out: IC50, human ESC (converted)): 1.52 nM | concentration at 24 h ([2]; 24 hours after oral dose, each dose amount, below lower limit of quantitation, read-out: plasma Compound 1 concentration): < 40 nM | concentration at 3 h ([2]; 30 mg/kg): 107 ± 31.7 nM | concentration at 3 h ([2]; 60 mg/kg): 372 ± 304 nM | concentration at 3 h ([2]; 100 mg/kg): 361 ± 131 nM

COc1ccc(CC(=O)O)cc1Oc1ccc(NC(=O)C(C)(C)C)cc1CSC(C)(C)C [Compound 2, 2-(3-(2-((tert-butylthio)methyl)-4-(2,2-dimethyl-propionylamino)phenoxy)-4-methoxyphenyl)acetic acid, sodium salt]
IC50 (CYP2D6): > 50000 nM | CO ([3]; IV saline, 2 mg/kg): 10.3 µg/mL | ClPl ([3]; IV saline, 2 mg/kg): 5.0 mL/min/kg | AUC [3, 5]: 14300 ng·h/mL | Cmax [3, 5]: 4800 ng/mL | Tmax [3, 5]: 2.1 h | bioavailability [3, 5]: 78.6% | half-life [3, 5]: 2.8 h | AUC [3, 6]: 20900 ng·h/mL | Cmax [3, 6]: 14400 ng/mL | Tmax [3, 6]: 1 h | bioavailability [3, 6]: 128% | half-life [3, 6]: 2.4 h | AUC [3, 7]: 6500 ng·h/mL | Tmax [3, 7]: 0.1 h | Vd ([3]; male, Beagle, in vivo, IV saline, 2 mg/kg, read-out: VDss): 0.9 L/kg | half-life [3, 7]: 5.1 h | eosinophils and neutrophils in bronchoalveolar lavage fluid ([4]; 100 mg/kg PO): significantly reduced | total cellular influx in bronchoalveolar lavage fluid ([4]; 30, 60, and 100 mg/kg PO, significant at 60 and 100 mg/kg, 23.5 hr post-dose): dose dependently inhibited | DK-PGD2-induced increase in blood leukocytes ([4]; 30, 60, and 100 mg/kg, 2.5 hours post administration): blocked | IC50 (CYP1A2): > 50000 nM | IC50 (CYP2C19): > 50 µM
